Experiments:
Assay type in all cases: functional
[1] = system: CAKI-1; experiment: Cytotoxicity against human CAKI-1 cells by sulforhodamine B assay
[2] = system: PC-3; experiment: Cytotoxicity against human PC3 cells by sulforhodamine B assay
[3] = Cytotoxicity against human OVCAR4 cells by sulforhodamine B assay
[4] = system: KM12; experiment: Cytotoxicity against human KM12 cells by sulforhodamine B assay
[5] = system: RPMI-8226; experiment: Cytotoxicity against human RPMI8226 cells by sulforhodamine B assay
[6] = system: SNB-75; experiment: Cytotoxicity against human SNB75 cells by sulforhodamine B assay
[7] = Cytotoxicity against human UACC257 cells by sulforhodamine B assay
[8] = system: MDA-MB-435; experiment: Cytotoxicity against human MDA-MB-435 cells by sulforhodamine B assay
[9] = system: K562; experiment: Cytotoxicity against human K562 cells by sulforhodamine B assay
[10] = system: NCI-H23; experiment: Cytotoxicity against human NCI-H23 cells by sulforhodamine B assay
[11] = system: NCI-H226; experiment: Cytotoxicity against human NCI-H226 cells by sulforhodamine B assay
[12] = system: ACHN; experiment: Cytotoxicity against human ACHN cells by sulforhodamine B assay
[13] = system: SN12C; experiment: Cytotoxicity against human SN12C cells by sulforhodamine B assay
[14] = system: A549; experiment: Cytotoxicity against human A549/ATCC cells by sulforhodamine B assay
[15] = system: T47D; experiment: Cytotoxicity against human T47D cells by sulforhodamine B assay
[16] = system: Malme-3M; experiment: Cytotoxicity against human MALME-3M cells by sulforhodamine B assay
[17] = system: HOP-62; experiment: Cytotoxicity against human HOP62 cells by sulforhodamine B assay
[18] = system: UACC-62; experiment: Cytotoxicity against human UACC62 cells by sulforhodamine B assay
[19] = system: NCI-H460; experiment: Cytotoxicity against human NCI-H460 cells by sulforhodamine B assay
[20] = system: SF-539; experiment: Cytotoxicity against human SF539 cells by sulforhodamine B assay
[21] = system: NCI-H322M; experiment: Cytotoxicity against human NCI-H322M cells by sulforhodamine B assay
[22] = Cytotoxicity against human OVCAR5 cells by sulforhodamine B assay
[23] = system: M14; experiment: Cytotoxicity against human M14 cells by sulforhodamine B assay
[24] = system: SK-MEL-28; experiment: Cytotoxicity against human SK-MEL-28 cells by sulforhodamine B assay
[25] = system: SK-MEL-2; experiment: Cytotoxicity against human SK-MEL-2 cells by sulforhodamine B assay
[26] = system: OVCAR-3; experiment: Cytotoxicity against human OVCAR3 cells by sulforhodamine B assay
[27] = system: RXF 393; experiment: Cytotoxicity against human RXF393 cells by sulforhodamine B assay
[28] = system: SNB-19; experiment: Cytotoxicity against human SNB19 cells by sulforhodamine B assay
[29] = system: SK-MEL-5; experiment: Cytotoxicity against human SK-MEL-5 cells by sulforhodamine B assay
[30] = system: HCC 2998; experiment: Cytotoxicity against human HCC2998 cells by sulforhodamine B assay
[31] = system: 786-0; experiment: Cytotoxicity against human 786-0 cells by sulforhodamine B assay
[32] = system: A498; experiment: Cytotoxicity against human A498 cells by sulforhodamine B assay
[33] = system: U-251; experiment: Cytotoxicity against human U251 cells by sulforhodamine B assay
[34] = system: BT-549; experiment: Cytotoxicity against human BT549 cells by sulforhodamine B assay
[35] = system: MDA-MB-468; experiment: Cytotoxicity against human MDA-MB-468 cells by sulforhodamine B assay
[36] = Cytotoxicity against human NCI-ADR-RES cells by sulforhodamine B assay
[37] = system: SK-OV-3; experiment: Cytotoxicity against human SKOV3 cells by sulforhodamine B assay
[38] = system: LOX IMVI; experiment: Cytotoxicity against human LOXIMVI cells by sulforhodamine B assay
[39] = system: OVCAR-8; experiment: Cytotoxicity against human OVCAR8 cells by sulforhodamine B assay
[40] = read-out: LC50 (the source's name)

COc1ccc(C(=O)/C=C/c2ccc(/C=C/c3cc(OC)c(OC)c(OC)c3)cc2)cc1
GI50 [1]: 14.6 µM | TGI [1]: > 100 µM | CC50 [1, 40]: > 100 µM | GI50 [2]: 5.65 µM | TGI [2]: > 100 µM | CC50 [2, 40]: > 100 µM | GI50 ([3]; OVCAR-4): 6.31 µM | TGI ([3]; OVCAR-4): 47.3 µM | CC50 ([3]; OVCAR-4, read-out: LC50 (the source's name)): > 100 µM | GI50 [4]: 3.75 µM | TGI [4]: 83.9 µM | CC50 [4, 40]: > 100 µM | GI50 [5]: 2.57 µM | TGI [5]: 8.54 µM | CC50 [5, 40]: > 100 µM | GI50 [6]: 5.5 µM | TGI [6]: 47.7 µM | CC50 [6, 40]: > 100 µM | GI50 ([7]; UACC-257): 9 µM | TGI ([7]; UACC-257): > 100 µM | CC50 ([7]; UACC-257, read-out: LC50 (the source's name)): > 100 µM | GI50 [8]: 4.28 µM | TGI [8]: 47.7 µM | CC50 [8, 40]: > 100 µM | GI50 [9]: 3.03 µM | TGI [9]: > 100 µM | CC50 [9, 40]: > 100 µM | GI50 [10]: 5.39 µM | TGI [10]: 65.9 µM | CC50 [10, 40]: > 100 µM | GI50 [11]: 3.57 µM | TGI [11]: 22.8 µM | CC50 [11, 40]: > 100 µM | GI50 [12]: 11.6 µM | TGI [12]: > 100 µM | CC50 [12, 40]: > 100 µM | GI50 [13]: 9.61 µM | TGI [13]: > 100 µM | CC50 [13, 40]: > 100 µM | GI50 [14]: 4.67 µM | TGI [14]: 80.9 µM | CC50 [14, 40]: > 100 µM | GI50 [15]: 6.19 µM | TGI [15]: > 100 µM | CC50 [15, 40]: > 100 µM | GI50 [16]: 13.2 µM | TGI [16]: > 100 µM | CC50 [16, 40]: > 100 µM | GI50 [17]: 1.28 µM | TGI [17]: 63.8 µM | CC50 [17, 40]: > 100 µM | GI50 [18]: 7.13 µM | TGI [18]: > 100 µM | CC50 [18, 40]: > 100 µM | GI50 [19]: 8.65 µM | TGI [19]: > 100 µM | CC50 [19, 40]: > 100 µM | GI50 [20]: 12.2 µM | TGI [20]: 78.3 µM | CC50 [20, 40]: > 100 µM | GI50 [21]: 1.98 µM | TGI [21]: > 100 µM | CC50 [21, 40]: > 100 µM | GI50 ([22]; OVCAR-5): 34.1 µM | TGI ([22]; OVCAR-5): > 100 µM | CC50 ([22]; OVCAR-5, read-out: LC50 (the source's name)): > 100 µM | GI50 [23]: 9.61 µM | TGI [23]: > 100 µM | CC50 [23, 40]: > 100 µM | GI50 [24]: 1.69 µM | TGI [24]: > 100 µM | CC50 [24, 40]: > 100 µM | GI50 [25]: 1.89 µM | TGI [25]: > 100 µM | CC50 [25, 40]: > 100 µM | GI50 [26]: 3.92 µM | TGI [26]: 14.3 µM | CC50 [26, 40]: 74.4 µM | GI50 [27]: 8.01 µM | TGI [27]: 43.6 µM | CC50 [27, 40]: > 100 µM | GI50 [28]: 21.1 µM | TGI [28]: > 100 µM | CC50 [28, 40]: > 100 µM | GI50 [29]: 3.39 µM | TGI [29]: 19.2 µM | CC50 [29, 40]: > 100 µM | GI50 [30]: 38.4 µM | TGI [30]: > 100 µM | CC50 [30, 40]: > 100 µM | GI50 [31]: 10.4 µM | TGI [31]: 71.1 µM | CC50 [31, 40]: > 100 µM | GI50 [32]: 18.6 µM | TGI [32]: > 100 µM | CC50 [32, 40]: > 100 µM | GI50 [33]: 5.09 µM | TGI [33]: 54.7 µM | CC50 [33, 40]: > 100 µM | GI50 [34]: 3.36 µM | TGI [34]: 16.8 µM | CC50 [34, 40]: > 100 µM | GI50 [35]: 3.39 µM | TGI [35]: 48.7 µM | CC50 [35, 40]: > 100 µM | GI50 [36]: 5.46 µM | TGI [36]: > 100 µM | CC50 [36, 40]: > 100 µM | GI50 [37]: 15.6 µM | TGI [37]: 64.5 µM | CC50 [37, 40]: > 100 µM | GI50 [38]: 3.76 µM | TGI [38]: 60.9 µM | CC50 [38, 40]: > 100 µM | GI50 [39]: 3.76 µM | TGI [39]: 61.1 µM | CC50 [39, 40]: > 100 µM
